Laboratory results reported in patent US10849956B2, “Glycopeptide compositions” (priority 2014, dated 2020).
Values after ≈ are worked out from the molar mass of the structure shown. Where two headings read alike, the source gives them in different places. Values belong to the compound of their own block, whether it stands above or below them.

Key:
[1] = test system: Staphylococcus aureus ATCC 29213; experiment: Antibacterial susceptibility testing, broth dilution method (CLSI); format: cell-based; settings: ATCC29213, Table 6, solutions stored at 25 degrees Celsius for the test period in days indicated
Description: (§1) Testing was performed using broth dilution method according to Clinical and Laboratory Standards Institute (CLSI) guidelines M100-S23/S24; M07-A9, the disclosure of which is herein incorporated by reference.
(§2) The antibiotic activity of eight aqueous pharmaceutical compositions was determined and compared to the activity of the injectable reference finished product, Vancocin, manufactured by Flynn Pharma Ltd. Antibiotic activity was determined against quality control strains: Staphylococcus aureus ATCC 29213, Enterococcus faecalis ATCC 29212 and Streptococcus pnemoniae ATCC 49619.

[2] = test system: Enterococcus faecalis ATCC 29212; experiment: as above; format: cell-based; settings: ATCC29212, Table 6, solutions stored at 25 degrees Celsius for the test period in days indicated
Description: as §1, §2

[3] = test system: Streptococcus pnemoniae ATCC 49619; experiment: as above; format: cell-based
Description: as §1, §2

[4] = cited from earlier work
[5] = multiple dosing of 500 mg Vancomycin infused over 30 minutes

MIC [1]: 1 µg/mL (≈ 2.74 µM)
MIC [2]: 0.5 µg/mL (≈ 1.37 µM)
MIC ([3]; Table 6, solutions stored at 25 degrees Celsius for the test period in days indicated, read-out: Streptococcus pneumoniae MIC): 0.06 µg/mL (≈ 0.164 µM)
SMILES: CC1(C)S[C@@H]2[C@H](NC(=O)[C@H](N)c3ccc(O)cc3)C(=O)N2[C@H]1C(=O)O [Amoxicillin USP standard, Amoxicillin]

SMILES: CN[C@H](CC(C)C)C(=O)N[C@H]1C(=O)N[C@@H](CC(N)=O)C(=O)N[C@H]2C(=O)N[C@H]3C(=O)N[C@H](C(=O)N[C@H](C(=O)O)c4cc(O)cc(O)c4-c4cc3ccc4O)[C@H](O)c3ccc(c(Cl)c3)Oc3cc2cc(c3O[C@@H]2O[C@H](CO)[C@@H](O)[C@H](O)[C@H]2O[C@H]2C[C@](C)(N)[C@H](O)[C@H](C)O2)Oc2ccc(cc2Cl)[C@H]1O [Vancomycin USP standard, Vancomycin]
MIC ([3]; read-out: Streptococcus pneumoniae MIC (μg/mL)): 0.125 µg/mL (≈ 0.0863 µM)

SMILES: CN[C@H](CC(C)C)C(=O)N[C@H]1C(=O)N[C@@H](CC(N)=O)C(=O)N[C@H]2C(=O)N[C@H]3C(=O)N[C@H](C(=O)N[C@@H](C(=O)O)c4cc(O)cc(O)c4-c4cc3ccc4O)[C@H](O)c3ccc(c(Cl)c3)Oc3cc2cc(c3O[C@@H]2O[C@@H](CO)[C@@H](O)[C@H](O)[C@@H]2O[C@@H]2C[C@](C)(N)[C@H](O)[C@@H](C)O2)Oc2ccc(cc2Cl)[C@H]1O [Vancomycin]
mean plasma concentration immediately after infusion ([4]; intravenous infusion of 1 gram Vancomycin (15 mg/kg) over 60 minutes): 63 micrograms/mL
mean plasma concentration at the completion of infusion [4, 5]: about 49 microgram/mL
mean plasma concentration six hours after infusion [4, 5]: about 10 microgram/mL
mean plasma concentration two hours after infusion [4, 5]: about 19 microgram/mL
